The subject of data set [1] is LecA-FITC binding to human A549 cells. The data set is described as follows: Inhibition of LecA-FITC adhesion to A549 cells by fluorescence microscopy. It is filed as cell-based. The following applies: 100 μM compound, 10 μM LecA-FITC, 4 °C, 30 min. On the procedure:
LecA-mediated cell adhesion is crucial for the initial infection and host-cell invasion of P. aeruginosa. Therefore, compounds 1 and 2, a combination of 1+2 and the dual inhibitor 12 were assessed for their ability to inhibit LecA-binding to human A549 cells. 10 μM of LecA-FITC and different concentrations of the respective compounds were incubated at 4 °C for 30 min with confluent A549 cells.
10 min, facilitating the separation of bacterial cells from the supernatant. The latter was filtered through a 0.22 µm sterile filter and stored at –80 °C until further use. […]
CO2. […] The plates were then incubated for an additional 30 min at 37 °C and then, the UV absorbance was measured using a PHERAstar microplate reader. The test samples were read at a wavelength of 550 nm, while the blank was read at 620 nm. At last, the data were statistically analyzed and presented graphically using GraphPad Prism 9 (Figure S4 and S5). […]
have any negative effects. The plate was then incubated at 4 °C for 30 min and wells were washed 5 times with PBS prior to imaging via fluorescence microscopy.
Fluorescence image acquisition, processing, and quantification
Fluorescence images were captured using an inverted fluorescence microscope (Leica DMi8) equipped with a 20x objective (HC PL APO CS2 20x/0.75 IMM UV), an FITC filter cube (EX: […]

The subject of data set [2] is A549 cells. The data set is described as follows: Inhibition of LasB-dependent cytotoxicity of P. aeruginosa PAO1 culture supernatant on A549 cells (MTT). Type of data set: cell-based, human. The conditions noted are these: for A549 cell viability under PAO1 culture supernatant: 10% (v/v) PAO1 supernatant. As to the method:
Next, we set out to analyze the ability of the dual inhibitor 12 and the individual treatment or combination of galactoside 1 and thiol 2 to reduce LasB-dependent cytotoxicity from P. aeruginosa PAO1 culture supernatant on A549 cells. None of the investigated compounds influenced A549 cell viability at 100 μM in the absence of bacterial culture supernatant (Fig. S4 ^†). […]
In vitro evaluation of 12 and a combination of 1 and 2 using P. aeruginosa culture supernatant and A549 cells in a cell viability assay
The A549 cell line, derived from human lung adenocarcinoma, was grown in Dulbecco's Modified Eagle Medium (DMEM) supplemented with 10% Fetal Bovine Serum (FBS) and 1% penicillin-streptomycin. The cells were cultured following standard protocols for cell […]
To prepare the bacterial culture supernatant, individual flasks containing 15 mL of lysogeny broth (LB) culture medium were inoculated with PAO1 or PAO1 ΔlasB strains. Culture flasks were placed on a shaker and incubated at 37 °C and 180 rpm overnight for 18 hours. Following incubation, the bacterial cultures were subjected to centrifugation at 4 °C and 5000 rpm for […]
10 min, facilitating the separation of bacterial cells from the supernatant. The latter was filtered through a 0.22 µm sterile filter and stored at –80 °C until further use.
In a flat bottom 96-well plate (Corning™ Costar™), each well was seeded with 2.5–3.5*10 3 cells in 100 µL DMEM/FCS and then incubated at a temperature of 37 °C with 5% CO2 for 24 hours. Then, compounds 12 and 1 combined with 2 in concentrations of 100 µM, 10 µM, and 1 µM were mixed with 10% (v/v) of culture supernatant of P. aeruginosa PAO1 (DSM 22644, ATCC 15692) in DMEM/FCS. To minimize the potential negative effect of DMSO, the compound was initially dissolved in 99.9% DMSO, and a final assay concentration of 0.5% DMSO was applied. Additionally, the cells were exposed to 10% (v/v) PAO1 ΔlasB culture supernatant to analyze the effect caused by LasB, while DMEM/FCS without any treatment served as a control. The plates were then incubated at 37 °C with 5% CO2 for 24 hours before conducting the MTT assay.
To assess cell viability, the medium in the well plates was aspirated and a single wash was performed using 100 µL of phosphate buffered saline, pH 7.4 (PBS). A solution of 5 mg MTT (3-(4,5-dimethylthiazol-2-yl)-2,5-diphenyl tetrazolium bromide) per mL PBS was prepared and diluted to a concentration of 10% (v/v) in DMEM/FCS. Subsequently, 100 µL of this MTT solution was added to each well, and the plates were incubated at 37 °C for 3 hours with 5%
CO2. After incubation, the MTT solution was carefully removed, and the formazan crystals were dissolved by adding 150 µL of lysis solution (250 mL DMSO, 25 g SDS, and 1.25 mL AcOH) to each well. The plates were then incubated for an additional 30 min at 37 °C and then, the UV absorbance was measured using a PHERAstar microplate reader. The test samples were read at a wavelength of 550 nm, while the blank was read at 620 nm. At last, the data were statistically analyzed and presented graphically using GraphPad Prism 9 (Figure S4 and S5).
Evaluation of compounds 1, 2 and 12 in inhibiting LecA adhesion to A549 cells via […]
The A549 cell line were cultured following the protocols for cell maintenance described above.
In a flat-bottom cell culture black 96-well plate (Greiner Bio-One, #Cat 655090) each well was seeded with 1*104 cells in 100 µL DMEM/FCS and subsequently, incubated overnight at 37 °C with 5% CO2. […]

With `CC(C)CC(S)C(=O)Nc1ccc(S[C@@H]2O[C@H](CO)[C@H](O)[C@H](O)[C@H]2O)cc1` (some centres unmarked) [Compound 12], the “inhibition of binding of LecA-FITC to A549 cells” value in data set [1] was “significantly inhibited the binding of LecA-FITC to A549 cells to the background level”. Moreover, the “A549 cell viability under PAO1 culture supernatant” value in data set [2] (1 μM compound) is “statistically significant beneficial effect on cell viability”; in data set [2] (10 μM compound), “increase in cell viability compared to the combination of the individual LasB (2) and LecA (1) inhibitors”; in data set [2] (100 μM compound), “increase in cell viability compared to the combination of the individual LasB (2) and LecA (1) inhibitors”. The “cytotoxicity of PAO1 culture supernatant in presence of compound” value in data set [2] (100 μM compound, compared with LasB-deficient strain control) is given as “reached that of the LasB-deficient strain”.
